Literature values as cited in patent US20110256218A1, “CONTROLLED RELEASE COMPOSITIONS COMPRISING MECLIZINE OR RELATED PIPERAZINE DERIVATIVES” (EURAND, INC., priority 2010, published 2011).
Counter-ions that a name gives are not always drawn.

Experiments:
[1] = in humans
[2] = patients taking meclizine
[3] = in vivo
[4] = weakly basic chemical entity

| SMILES | plasma half-life [1] | sedation reported (common side effect) [2] | effects lasting (duration of action) [3] [h] | onset of action [3] | pKa [4] |
| --- | --- | --- | --- | --- | --- |
| Cc1cccc(CN2CCN(C(c3ccccc3)c3ccc(Cl)cc3)CC2)c1 (centres unmarked) [meclizine] | about 6 hours | 20%-30% | 8 to 24 | about 1 hour |  |
| Cc1cccc(CN2CCN(C(c3ccccc3)c3ccc(Cl)cc3)CC2)c1 (stereo not drawn) [Meclizine 2HCl.H2O, 1-(p-chloro-α-phenylbenzyl)-4-(m-methylbenzyl)piperazine dihydrochloride monohydrate] |  |  |  |  | 6.2 |
